Experimental data: ChEMBL document CHEMBL3259815, “Regioselective synthesis of polycyclic aza-oxa and aza-oxa-thia heteroarenes as Colo-205 and HepG2 carcinoma cells growth inhibitors” (Eur J Med Chem, 2014)
In brackets after ≈: the same amount, converted by molar mass. Activity calls are given as the source filed them. The calls are words filed in the database; no cut-off is given here.

Assays:
COLO 205 [1] = assay: Induction of apoptosis in human COLO205 cells assessed as increase of p53 protein expression at IC50 after 48 hrs by Western blotting; format: functional, cell-based
COLO 205 [2] = assay: Induction of apoptosis in human COLO205 cells assessed as activation of caspase-8 at IC50 after 48 hrs by Western blotting; format: functional, cell-based
COLO 205 [3] = assay: Induction of apoptosis in human COLO205 cells assessed as early apoptotic cells at IC50 after 24 hrs using Annexin-V-FITC staining by flow cytometer analysis (reference value: 0.07%); format: functional
COLO 205 [4] = assay: Induction of apoptosis in human COLO205 cells assessed as late apoptotic cells at IC50 after 48 hrs using Annexin-V-FITC staining by flow cytometer analysis (reference value: 6.5%); format: functional
COLO 205 [5] = assay: Induction of apoptosis in human COLO205 cells assessed as increase of cytochrome-c relase at IC50 after 48 hrs by Western blotting; format: functional, cell-based
COLO 205 [6] = assay: Induction of apoptosis in human COLO205 cells assessed as viable cells at IC50 after 24 hrs using Annexin-V-FITC staining by flow cytometer analysis (reference value: 75.5%); format: functional
COLO 205 [7] = assay: Cytotoxicity against human COLO205 cells after 48 hrs by MTT assay; format: functional, cell-based; settings: for IC50: COLO 205, 48 h
COLO 205 [8] = assay: Induction of apoptosis in human COLO205 cells assessed as cleaved procaspase-3 level at IC50 after 48 hrs by Western blotting; format: functional, cell-based
COLO 205 [9] = assay: Induction of apoptosis in human COLO205 cells assessed as necrotic cells at IC50 after 48 hrs using Annexin-V-FITC staining by flow cytometer analysis (reference value: 0.5%); format: functional
COLO 205 [10] = assay: Induction of apoptosis in human COLO205 cells assessed as increase of Bax protein expression at IC50 after 48 hrs by Western blotting; format: functional, cell-based
COLO 205 [11] = assay: Cytotoxicity against human COLO205 cells after 24 hrs by MTT assay; format: functional, cell-based
COLO 205 [12] = assay: Induction of apoptosis in human COLO205 cells assessed as late apoptotic cells at IC50 after 24 hrs using Annexin-V-FITC staining by flow cytometer analysis (reference value: 0.07%); format: functional
COLO 205 [13] = assay: Induction of apoptosis in human COLO205 cells assessed as viable cells at IC50 after 48 hrs using Annexin-V-FITC staining by flow cytometer analysis (reference value: 65.8%); format: functional
COLO 205 [14] = assay: Induction of apoptosis in human COLO205 cells assessed as decrease of Bcl2 protein expression at IC50 after 48 hrs by Western blotting; format: functional, cell-based
COLO 205 [15] = assay: Induction of apoptosis in human COLO205 cells assessed as increase of p21 protein expression at IC50 after 48 hrs by Western blotting; format: functional, cell-based
COLO 205 [16] = assay: Induction of apoptosis in human COLO205 cells assessed as cleaved PARP level at IC50 after 48 hrs by Western blotting; format: functional, cell-based
COLO 205 [17] = assay: Induction of apoptosis in human COLO205 cells assessed as activation of caspase-9 at IC50 after 48 hrs by Western blotting; format: functional, cell-based
[18] = Cytotoxicity against rat IEC-6 cells assessed as cell viability up to 100 uM after 24 to 48 hrs by MTT assay; format: cell-based
COLO 205 [19] = assay: Induction of apoptosis in human COLO205 cells assessed as early apoptotic cells at IC50 after 48 hrs using Annexin-V-FITC staining by flow cytometer analysis (reference value: 0.3%); format: functional
COLO 205 [20] = assay: Induction of apoptosis in human COLO205 cells assessed as necrotic cells at IC50 after 24 hrs using Annexin-V-FITC staining by flow cytometer analysis relative to control; format: functional
HeLa = assay: Cytotoxicity against human HeLa cells; format: functional
HepG2 [21] = assay: Cytotoxicity against human HepG2 cells; format: functional
HepG2 [22] = assay: Cytotoxicity against human HepG2 cells up to 100 uM after 24 to 48 hrs by MTT assay; format: functional, cell-based
HepG2 [23] = assay: Cytotoxicity against human HepG2 cells after 48 hrs by MTT assay; format: functional, cell-based; settings: HepG2, 48 h
HepG2 [24] = assay: Induction of apoptosis in human HepG2 cells assessed as late apoptotic cells at IC50 after 48 hrs using Annexin-V-FITC staining by flow cytometer analysis (reference value: 0.5%); format: functional
HepG2 [25] = assay: Induction of apoptosis in human HepG2 cells assessed as early apoptotic cells at IC50 after 48 hrs using Annexin-V-FITC staining by flow cytometer analysis (reference value: 0.6%); format: functional
HepG2 [26] = assay: Induction of apoptosis in human HepG2 cells assessed as increase of cleaved caspase 3/9 level at IC50 after 48 hrs by Western blotting; format: functional, cell-based
HepG2 [27] = assay: Induction of apoptosis in human HepG2 cells assessed as increase of cleaved PARP level at IC50 after 48 hrs by Western blotting; format: functional, cell-based
HepG2 [28] = assay: Induction of apoptosis in human HepG2 cells assessed as decrease of Bcl2 protein expression at IC50 after 48 hrs by Western blotting; format: functional, cell-based
HepG2 [29] = assay: Induction of apoptosis in human HepG2 cells assessed as viable cells at IC50 after 48 hrs using Annexin-V-FITC staining by flow cytometer analysis (reference value: 97.3%); format: functional
HepG2 [30] = assay: Induction of apoptosis in human HepG2 cells assessed as increase of Bax protein expression at IC50 after 48 hrs by Western blotting; format: functional, cell-based
HepG2 [31] = assay: Induction of apoptosis in human HepG2 cells assessed as increase of p53 and p21 protein expression at IC50 after 48 hrs by Western blotting; format: functional, cell-based
HepG2 [32] = assay: Cytotoxicity against human HepG2 cells after 24 to 48 hrs by MTT assay; format: functional, cell-based
HepG2 [33] = assay: Induction of apoptosis in human HepG2 cells assessed as necrotic cells at IC50 after 48 hrs using Annexin-V-FITC staining by flow cytometer analysis (reference value: 1.5%); format: functional
HepG2 [34] = assay: Induction of apoptosis in human HepG2 cells assessed as increase of cytochrome-c relase at IC50 after 48 hrs by Western blotting; format: functional, cell-based

| Compound | Activity (COLO 205 [1]) | Activity (COLO 205 [2]) | Activity (COLO 205 [3]) | Activity (COLO 205 [4]) | Activity (COLO 205 [5]) | Activity (COLO 205 [6]) | Activity (COLO 205 [7]) | IC50 (COLO 205 [7]) | Activity (COLO 205 [8]) | Activity (COLO 205 [9]) | Activity (COLO 205 [10]) | Activity (COLO 205 [11]) | Activity (COLO 205 [12]) | Activity (COLO 205 [13]) | Activity (COLO 205 [14]) | Activity (COLO 205 [15]) | Activity (COLO 205 [16]) | Activity (COLO 205 [17]) | Activity [18] | Activity (HepG2 [22]) | further results |
| --- | --- | --- | --- | --- | --- | --- | --- | --- | --- | --- | --- | --- | --- | --- | --- | --- | --- | --- | --- | --- | --- |
| Nc1n[nH]c2c3c(oc(=O)c12)-c1ccc2ccccc2c1OCC3 | inactive | inactive | 5.5% | 8.6% | Active | 54.7% | Dose-dependent effect | 20 µM | Active | 7% | Active | inactive | 7.5% | 50.7% | Active | Active | Active | Active | Non-toxic |  | Activity (COLO 205 [19]): 0.2%; Activity (COLO 205 [20]): 1.7% |
| CC(=O)c1c(O)c2ccc3ccccc3c2oc1=O |  |  |  |  |  |  |  |  |  |  |  |  |  |  |  |  |  |  |  |  | CC50 (HeLa): 6.87 µg/mL (≈ 27 µM); CC50 (HepG2 [21]): 6.87 µg/mL (≈ 27 µM) |
| Nc1n[nH]c2c1C(=O)NN=C1c3cc(Cl)ccc3SCC12 (centres undefined) |  |  |  |  |  |  |  |  |  |  |  |  |  |  |  |  |  |  | Non-toxic | inactive |  |
| Nc1n[nH]c2c3c(oc(=O)c12)-c1cc(Cl)ccc1SC3 |  |  |  |  |  |  |  |  |  |  |  |  |  |  |  |  |  |  | Non-toxic | inactive |  |
| Nc1n[nH]c2c3c(oc(=O)c12)-c1ccccc1OCC3 |  |  |  |  |  |  |  |  |  |  |  |  |  |  |  |  |  |  | Non-toxic |  | IC50 (HepG2 [23]): 80 µM; Activity (HepG2 [24]): 9.2%; Activity (HepG2 [25]): 15.8%; Activity (HepG2 [26]): Active; Activity (HepG2 [27]): Active; Activity (HepG2 [28]): Active; Activity (HepG2 [29]): 70.4%; Activity (HepG2 [30]): Active; Activity (HepG2 [31]): Active; Activity (HepG2 [32]): Dose-dependent effect; Activity (HepG2 [33]): 4.6%; Activity (HepG2 [34]): Active |
| Cc1cc2c(cc1C)-c1oc(=O)c3c(N)n[nH]c3c1CCO2 | inactive | inactive | 9.4% | 4% | Active | 50.6% | Dose-dependent effect | 60 µM | Active | 7.5% | Active | inactive | 4.3% | 63.5% | Active | Active | Active | Active | Non-toxic | inactive | Activity (COLO 205 [19]): 0.1%; Activity (COLO 205 [20]): 0.7% |
| Nc1n[nH]c2c3c(oc(=O)c12)-c1ccccc1SC3 |  |  |  |  |  |  |  |  |  |  |  |  |  |  |  |  |  |  | Non-toxic | inactive |  |
| COc1ccc2c(c1)-c1oc(=O)c3c(N)n[nH]c3c1CCO2 | inactive | inactive | 16.7% | 7.7% | Active | 33.6% | Dose-dependent effect | 40 µM | Active | 3% | Active | inactive | 9% | 49.3% | Active | Active | Active | Active | Non-toxic | inactive | Activity (COLO 205 [19]): 0.3%; Activity (COLO 205 [20]): 0.2% |
| Nc1n[nH]c2c1C(=O)NN=C1c3ccccc3OCCC12 (centres undefined) |  |  |  |  |  |  |  |  |  |  |  |  |  |  |  |  |  |  | Non-toxic |  | IC50 (HepG2 [23]): 60 µM; Activity (HepG2 [24]): 7.6%; Activity (HepG2 [25]): 11.2%; Activity (HepG2 [26]): Active; Activity (HepG2 [27]): Active; Activity (HepG2 [28]): Active; Activity (HepG2 [29]): 74.5%; Activity (HepG2 [30]): Active; Activity (HepG2 [31]): Active; Activity (HepG2 [32]): Dose-dependent effect; Activity (HepG2 [33]): 6.7%; Activity (HepG2 [34]): Active |
